According to patent publication US7700765B2, “DNA minor groove binding compounds” (University of Strathclyde, priority 2001, dated 2010):

Key:
[1] = tested on: double-stranded DNA decamer CGACTAGTCG (SEQ ID NO:3); assay: Capillary electrophoresis ligand-DNA binding study; conditions: drug to DNA ratio up to 4:1
Excerpt: (§1) Typically, ligand binding results in a change in migration time of the DNA and sometimes a change in peak shape.
(§2) The following are shown in FIGS. 1-6: • (a) the experimental conditions, including the DNA sequence(s); • (b) the result of sequential addition of ligand; and • (c) the structure of the ligand being investigated. Key to FIGS. 1 to 6: • r0=electropherogram in the absence of drug • rX=(where X is 0.5, 1, 2, 3 or 4) electropherogram in the presence of drug, where the drug:DNA ratio (in terms of concentration) is X:1
(§3) This ratio corresponds to the binding ratio.

[2] = tested on: mixture of double-stranded DNA oligonucleotides AAATTATATTAT (SEQ ID NO:1) and GGACTAGTCG (SEQ ID NO:4); assay: Capillary electrophoresis competitive binding study; conditions: AAATTATATTAT dodecamer versus GGACTAGTCG decamer
Excerpt: (§4) Capillary electrophoresis was used to study of ligand-DNA binding (see: (i) Hamdan, I. I.; Skellern, G. G.; and Waigh, R. D. “Separation of pd(GC)12 from pd(AT)12 by free solution capillary electrophoresis”, J. Cromatogr. A. 806, 165-168 (1998); (ii) Hamdan, I. I.; Skellern, G. G.; and Waigh, R. D. “Use of capillary electrophoresis in the study of ligand-DNA interactions”, Nucleic Acids Research 26, 3053-3058 (1998); (iii) Hamdan, I. I.; Skellern, G. G.; and Waigh, R. D. “Ligand binding to oligonucleotides” Methods in Molecular Biology, Vol. 163, “Capillary Electrophoresis of Nucleic acids”, Vol 2, pages 379-391, K. R. Mitchelson and J. Cheng Eds., Humana Press, New Jersey, (2000)).
as §1, §2
This ratio corresponds to the binding ratio. […]

[3] = tested on: double-stranded DNA oligonucleotide CCACTAGTGG (SEQ ID NO:5); assay: Capillary electrophoresis ligand-DNA binding study; conditions: with CCACTAGTGG (SEQ ID NO:5)
Excerpt: as §4, §1, §2, §3

[4] = tested on: MS1 sequence (radio-labelled DNA, SEQ ID NO:6); assay: DNA footprinting (DNase I); assay type: binding; conditions: concentration of 0.03 μM
Protocol: DNA footprinting is a well-established technique in which a section of radio-labelled DNA (SEQ ID NO:6) is incubated with a chemical or biological cleaving agent, in the presence and absence of a putative binding ligand. Regions of ligand binding will show as blanks in the ‘ladder’. Knowing the DNA sequence, the binding sites can then be deduced, from the location of these blanks. The sequence shown in FIGS. 7 and 8 is MS1, which contains all possible four-base-pair binding sites. The procedure used in the footprinting experiments was analogous to that described in J. Med. Chem. 43, 3257 (2000), the disclosures of which document are hereby incorporated by reference. In an analogous manner to the procedure described in J. Med. Chem. 43, 3257 (2000), the MS1 sequence was labelled at the 3′-end with [α-^32P]dATP using reverse transcriptase. The agent used to cleave the radio-labelled DNA was DNase I. Bases that fall within the “footprint” of a compound are indicated by XX . . . XX underneath the sequence. The binding domain that has been confirmed by capillary electrophoresis is indicated by XX. XX.

[5] = tested on: NFκB protein-DNA complexes; assay: NFκB DNA-binding assay (gel shift) with macrophage nuclear extracts; assay type: biochemical, Murine; conditions: 1 μL of a 1 mM solution, final volume 10 μL; nuclear protein from macrophages exposed to LPS
Protocol: Murine macrophages (obtained and cultured as described in Cell. Signal. 11(7), 491 (1999), hereinafter referred to as “Reference 1”, the disclosures of which document are hereby incorporated by reference) were exposed to vehicle (see Reference 1) or 1 μg/mL lipopolysaccharide (LPS; the active component of gram-negative endotoxin and a strong activator of the Nuclear Factor kappa B (NFκB) pathway; the particular LPS being obtained from Salmonella minnesota) for 1 hour and nuclear extracts prepared by standard procedures (see Brit. J. Pharmacol. 134, 393 (2001), hereinafter referred to as “Reference 2”, the disclosures of which document are hereby incorporated by reference).
Aliquots of compounds (1 μL of a 1 mM solution) were incubated with 1 μL (0.035 pmol) of a ^32P-labelled 20 bp double-stranded DNA oligonucleotide (representing the consensus binding sequence for NFκB proteins (see Reference 2 and Brit. J. Pharmacol. 134, 1629-1638 (2001), the disclosures of which latter document are hereby incorporated by reference)) for 30 min at room temperature. […] The formation of NFκB protein-DNA complexes and potential inhibition of complex formation in the presence of the above compounds was detected by autoradiography. […]

Question: How did the “affinity for the sequence” value [1] turn out when “N-[3-(Dimethylamino)propyl]-2-({[4-({[4-(formylamino)-1-methyl-1H-pyrrol-2-yl]carbonyl}amino)-1-methyl-1H-pyrrol-2-yl]carbonyl}amino)-5-isopropyl-1,3-thiazole-4-carboxamide [Example 3]” was run?
Answer: strong affinity

Question: And the “relative affinity in competitive binding” value [2]?
Answer: greater affinity for the decamer ACTA sequence

Question: Does “N-[3-(Dimethylamino)propyl]-2-({[4-({[4-(formylamino)-1-methyl-1H-pyrrol-2-yl]carbonyl}amino)-1-methyl-1H-pyrrol-2-yl]carbonyl}amino)-5-isopropyl-1,3-thiazole-4-carboxamide [Example 3]” bind [3]?
Answer: identical with that achieved with the sequence in FIG. 3

Question: What about the “footprint on MS1 sequence” value [4] of the same substance?
Answer: binding to only one site on the MS1 sequence

Question: And the “effect on LPS-stimulated NFκB-DNA binding activity” value [5]?
Answer: appeared to inhibit
